In patent US20200148646A1, “6-S[…] 7-S[…] ANALOGS AND THE USE THEREOF” (Purdue Pharma, L.P., priority 2013, published 2020):

How the values were obtained:
Assay type in all cases: biochemical
[1] = target: T1, μ-opioid receptor (Homo sapiens, UniProt P35372); test: μ-opioid receptor [35S]GTPγS functional assay, HEK-293 or CHO cells; details: for Emax: HEK-293 or CHO cells, relative to DAMGO
Protocol: (§1) [^35S]GTPγS functional assays were conducted using freshly thawed μ-receptor membranes prepared in-house from a cell line expressing recombinant opioid receptor in a HEK-293, CHO or U-2 OS cell background, or purchased from a commercial source (Perkin Elmer, Shelton, Conn.; or DiscovRx, Fremont, Calif.). Assay reactions were prepared by sequentially adding the following reagents to binding buffer (100 mM NaCl, 10 mM MgCl2, 20 mM HEPES, pH 7.4) on ice (final concentrations indicated): membrane protein (0.026 mg/mL), saponin ([…]), GDP ([…]) and [^35S]GTPγS (0.20 nM; Perkin Elmer, Shelton, Conn.). The prepared membrane solution (190 l/well) was transferred to 96-shallow well polypropylene plates containing 10 μl of 20× concentrated stock solutions of the agonist [D-Ala^2, N-methyl-Phe^4 Gly-ol^5]-enkephalin (DAMGO) prepared in dimethyl sulfoxide (DMSO). Plates were incubated for 30 min at about 25° C. with shaking. Reactions were terminated by rapid filtration onto 96-well Unifilter GF/B filter plates (Perkin Elmer, Shelton, Conn.) using a 96-well tissue harvester (Perkin Elmer, Shelton, Conn.) followed by three filtration washes with 200 μl of ice-cold wash buffer (10 mM NaH2PO4, 10 mM Na2HPO4, pH 7.4). Filter plates were subsequently dried at 50° C. for 2-3 hr. BetaScint scintillation cocktail (Perkin Elmer, Shelton, Conn.) was added (50 μl/well) and plates were counted using a Packard Top-Count for 1 min/well. Data were analyzed using the sigmoidal dose-response curve fitting functions in GraphPad PRISM v. 3.0, or an in-house function for non-linear, sigmoidal dose-response curve-fitting.
(§2) μ GTP EC50 is the concentration of a compound providing 50% of the maximal response for the compound at a μ-opioid receptor.
(§3) μ GTP Emax (%) is the maximal effect elicited by a compound relative to the effect elicited by DAMGO, a standard agonist. Generally, the μ GTP Emax (%) value measures the efficacy of a compound to treat or prevent pain or other Conditions.
In TABLE 2, activity response of certain Compounds of the Invention at the μ- and κ-opioid receptors using HEK-293 or CHO cells was determined as described above for functional assays.

[2] = target: T1, μ-opioid receptor; test: μ-opioid receptor [35S]GTPγS functional assay, U-2 OS cells; set-up: host or cells: U-2 OS cells; details: for Emax: U2-OS cells, relative to DAMGO
Protocol: as §1, §2, §3
(§4) In TABLE 2A, activity response of certain Compounds of the Invention at the μ- and κ-opioid receptors using U-2 OS cells was determined as described above for functional assays.

[3] = target: human κ opioid receptor (Homo sapiens, UniProt P41145); test: κ-opioid receptor [35S]GTPγS functional assay, U-2 OS cells; set-up: expressed in transfected cells; host or cells: U-2 OS cells (in-house membranes); details: for Emax: U2-OS cells, relative to U69,593
Protocol: Membranes from recombinant HEK-293 cells, CHO or U-2 OS cells expressing the recombinant human K opioid receptor (K) were prepared by lysing cells in ice cold hypotonic buffer (2.5 mM MgCl2, 50 mM HEPES, pH 7.4) (10 mL/10 cm dish) followed by homogenization with a tissue grinder/Teflon pestle. Functional [^35S]GTPγS binding assays were conducted as follows. K opioid receptor membrane solution was prepared by sequentially adding final concentrations of 0.026 μg/μl κ membrane protein (in-house), 10 μg/mL saponin, 3 μM GDP and 0.20 nM [^35S]GTPγS to binding buffer (100 mM NaCl, 10 mM MgCl2, 20 mM HEPES, pH 7.4) on ice. The prepared membrane solution (190 μl/well) was transferred to 96-shallow well polypropylene plates containing 10 μl of 20× concentrated stock solutions of agonist prepared in DMSO. Plates were incubated for 30 min at a temperature of about 25° C. with shaking. Reactions were terminated by rapid filtration onto 96-well Unifilter GF/B filter plates (Perkin Elmer, Shelton, Conn.) using a 96-well tissue harvester (Packard) and followed by three filtration washes with 200 μl ice-cold binding buffer (10 mM NaH2PO4, 10 mM Na2HPO4, pH 7.4). Filter plates were subsequently dried at 50° C. for 2-3 hours. Fifty μl/well scintillation cocktail (Perkin Elmer, Shelton, Conn.) was added and plates were counted in a Packard Top-Count for 1 min/well.
κ GTP EC50 is the concentration of a compound providing 50% of the maximal response for the compound at a κ receptor.
κ GTP Emax (%) is the maximal effect elicited by a compound relative to the effect elicited by U69,593.
as §4

Chain of human κ opioid receptor (P41145 whole entry): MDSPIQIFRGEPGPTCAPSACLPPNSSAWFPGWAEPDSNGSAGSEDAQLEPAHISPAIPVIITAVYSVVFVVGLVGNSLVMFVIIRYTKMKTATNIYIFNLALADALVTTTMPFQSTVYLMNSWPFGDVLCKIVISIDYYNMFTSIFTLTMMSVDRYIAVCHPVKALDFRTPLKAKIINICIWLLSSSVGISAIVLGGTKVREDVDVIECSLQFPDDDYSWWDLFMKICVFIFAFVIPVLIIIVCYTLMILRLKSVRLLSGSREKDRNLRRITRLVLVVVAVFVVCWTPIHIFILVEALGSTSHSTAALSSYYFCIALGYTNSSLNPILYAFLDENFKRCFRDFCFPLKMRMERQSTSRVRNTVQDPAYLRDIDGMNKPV
T1 sequence (P35372 whole entry, species assumed): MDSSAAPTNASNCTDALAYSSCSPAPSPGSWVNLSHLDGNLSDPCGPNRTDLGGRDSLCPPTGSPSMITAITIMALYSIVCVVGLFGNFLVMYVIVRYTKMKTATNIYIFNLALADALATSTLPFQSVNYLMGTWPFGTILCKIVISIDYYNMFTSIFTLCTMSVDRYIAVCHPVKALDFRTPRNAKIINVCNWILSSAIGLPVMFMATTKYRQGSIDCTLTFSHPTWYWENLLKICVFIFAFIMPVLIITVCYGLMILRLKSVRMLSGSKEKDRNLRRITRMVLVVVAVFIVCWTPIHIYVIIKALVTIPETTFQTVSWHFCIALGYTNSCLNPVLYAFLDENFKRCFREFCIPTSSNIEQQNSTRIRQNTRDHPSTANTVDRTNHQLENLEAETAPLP

SMILES | EC50 [1] | Emax [1] | EC50 [2] | Emax [2] | EC50 [3] | Emax [3]
O=C1C=C2[C@H]3Cc4ccc(O)cc4[C@]2(CC1)CCN3CC1CC1 [Compound 68, (4bS,9R)-11-(cyclopropylmethyl)-3-hydroxy-5,6,9,10-tetrahydro-7H-9,4b-(epiminoethano)phenanthren-7-one] | > 20000 nM | 6 ± 3% | 4.54 ± 1.28 nM | 31.3 ± 1.33% | 1.67 ± 0.099 nM | 104 ± 2.31%
CC(C)CN[C@H]1CC[C@]23CCN(CC4CC4)[C@H](Cc4ccc(O)cc42)[C@]3(O)C1 [Compound 42, (4bS,7S,8aS,9R)-11-(cyclopropylmethyl)-7-(isobutylamino)-5,6,7,8,9,10-hexahydro-8aH-9,4b-(epiminoethano)phenanthrene-3,8a-diol] | 20.2 ± 7.83 nM | 16.6 ± 1.63% | 2.81 ± 0.16 nM | 67.3 ± 2.85% | 0.25 ± 0.029 nM | 110%
COc1ccc2c(c1)[C@@]13CC[C@H](NC(=O)C(C)C)C[C@@]1(O)[C@@H](C2)N(CC1CC1)CC3 [Compound 45, N-((4bS,7S,8aS,9R)-11-(cyclopropylmethyl)-8a-hydroxy-3-methoxy-6,7,8,8a,9,10-hexahydro-5H-9,4b-(epiminoethano)phenanthren-7-yl)isobutyramide] | 308 ± 122 nM | 15.3 ± 1.86% | 72 ± 15.9 nM | 71 ± 5.69% | 10.6 ± 2.1 nM | 106 ± 1%
COc1ccc2c(c1)[C@]13CCN(CC4CC4)[C@H](C2)[C@]12C[C@H](OCc1ccccc1)[C@H](C3)O2 [Compound 102, (4bR,6S,7S,8aS,9R)-7-(benzyloxy)-11-(cyclopropylmethyl)-3-methoxy-5,6,7,8,9,10-hexahydro-9,4b-(epiminoethano)-6,8a-epoxyphenanthrene] | 1520 ± 465 nM | 10.5 ± 1.26% | 470 ± 69.9 nM | 42 ± 1.73% | 1920 nM | 58.3 ± 0.67%
CC(C)CC[C@H]1C[C@@]2(O)[C@H]3Cc4ccc(O)cc4[C@@]2(CCN3C)C[C@H]1O [Compound 109, (4bR,6R,7S,8aS,9R)-7-isopentyl-11-methyl-5,6,7,8,9,10-hexahydro-8aH-9,4b-(epiminoethano)phenanthrene-3,6,8a-triol] | 1870 ± 203 nM | 41.1 ± 3.25% |  |  |  | 
CC(C)CCCC(=O)N[C@H]1C[C@@]2(O)[C@H]3Cc4ccc(O)cc4[C@@]2(CCN3CC2CC2)C[C@H]1O [Compound 62, N-((4bR,6R,7S,8aS,9R)-11-(cyclopropylmethyl)-3,6,8a-trihydroxy-6,7,8,8a,9,10-hexahydro-5H-9,4b-(epiminoethano)phenanthren-7-yl)-5-methylhexanamide] | 54.7 ± 4.52 nM | 23.3 ± 0.67% | 43.3 ± 5.6 nM | 60.3 ± 0.88% | 17.4 ± 1.46 nM | 90.2 ± 1.65%
CC(C)CCCC(=O)O[C@@H]1C[C@]23CCN(CC4CC4)[C@H](Cc4ccc(O)cc42)[C@]3(O)C[C@@H]1N [Compound 117, (4bR,6R,7S,8aS,9R)-7-amino-11-(cyclopropylmethyl)-3,8a-dihydroxy-6,7,8,8a,9,10-hexahydro-5H-9,4b-(epiminoethano)phenanthren-6-yl 5-methylhexanoate] | 23 ± 3.59 nM | 14.1 ± 1.2% |  |  |  | 
CC(C)CCCC(=O)N[C@H]1C[C@@]2(O)[C@H]3Cc4ccc(O)cc4[C@@]2(CCN3C)CC1O (stereo partly drawn) [Compound 106, 5-methyl-N-((4bR,7S,8aS,9R)-3,6,8a-trihydroxy-11-methyl-6,7,8,8a,9,10-hexahydro-5H-9,4b-(epiminoethano)phenanthren-7-yl)hexanamide] | 635 ± 43.7 nM | 82.3 ± 1.86% |  |  |  | 
CN1CC[C@]23C[C@H](OCCO)C[C@@H](O)[C@@H]2[C@H]1Cc1ccc(O)cc13 [Compound 121, (4bS,6S,8R,8aS,9R)-6-(2-hydroxyethoxy)-11-methyl-6,7,8,8a,9,10-hexahydro-5H-9,4b-(epiminoethano)phenanthrene-3,8-diol] | 1960 ± 876 nM | 16.6 ± 1.97% |  |  |  | 
CN[C@H]1C[C@@]2(O)[C@H]3Cc4ccc(O)cc4[C@@]2(CCN3C)C[C@H]1O [Compound 116, (4bR,6R,7S,8aS,9R)-11-methyl-7-(methylamino)-5,6,7,8,9,10-hexahydro-8aH-9,4b-(epiminoethano)phenanthrene-3,6,8a-triol] | 13800 ± 600 nM | 28.9 ± 1.26% |  |  |  | 
CN1CC[C@]23CC(O)[C@@H](CC4CCCC4)C[C@@]2(O)[C@H]1Cc1ccc(O)cc13 (stereo partly drawn) [Compound 110, (4bR,7S,8aS,9R)-7-(cyclopentylmethyl)-11-methyl-5,6,7,8,9,10-hexahydro-8aH-9,4b-(epiminoethano)phenanthrene-3,6,8a-triol] | > 20000 nM | 42.7 ± 32.7% |  |  |  | 
CCN[C@H]1C[C@@]2(O)[C@H]3Cc4ccc(O)cc4[C@@]2(CCN3C)C[C@@H]1O [Compound 114, (4bR,6S,7S,8aS,9R)-7-(ethylamino)-11-methyl-5,6,7,8,9,10-hexahydro-8aH-9,4b-(epiminoethano)phenanthrene-3,6,8a-triol] | > 20000 nM | 9.47 ± 0.74% |  |  |  | 
CN(C)CC(=O)N[C@H]1C[C@@]2(O)[C@H]3Cc4ccc(O)cc4[C@@]2(CCN3CC2CC2)C[C@@H]1O [Compound 111, N-((4bR,6S,7S,8aS,9R)-11-(cyclopropylmethyl)-3,6,8a-trihydroxy-6,7,8,8a,9,10-hexahydro-5H-9,4b-(epiminoethano)phenanthren-7-yl)-2-(dimethylamino)acetamide] | > 20000 nM | 1.67 ± 0.67% |  |  |  | 
CC(C)C(=O)N[C@H]1CC[C@]23CCN(CC4CC4)[C@H](Cc4ccc(O)cc42)[C@]3(O)C1 [Compound 46, N-((4bS,7S,8aS,9R)-11-(cyclopropylmethyl)-3,8a-dihydroxy-6,7,8,8a,9,10-hexahydro-5H-9,4b-(epiminoethano)phenanthren-7-yl)isobutyramide] | > 20000 nM | 7.67 ± 3.48% | 0.38 ± 0.11 nM | 54 ± 6.03% | 0.1 ± 0.021 nM | 102 ± 5.24%
CC(C)C(=O)N[C@H]1C[C@@]2(O)[C@H]3Cc4ccc(O)cc4[C@@]2(CCN3C)C[C@H]1O [Compound 104, N-((4bR,6R,7S,8aS,9R)-3,6,8a-trihydroxy-11-methyl-6,7,8,8a,9,10-hexahydro-5H-9,4b-(epiminoethano)phenanthren-7-yl)isobutyramide] | 15500 ± 1320 nM | 23 ± 1.53% |  |  |  | 
